According to ChEMBL document CHEMBL4130574, “Discovery of novel 2,4-diarylaminopyrimidine analogues as ALK and ROS1 dual inhibitors to overcome crizotinib-resistant mutants including G1202R” (Eur J Med Chem, 2018):
pIC50: −log10 of the molar value.

How the values were obtained:
NCI-H2228 = assay: cells; settings: Homo sapiens, NCI-H2228, 72 h
Description: Antiproliferative activity against human NCI-H2228 cells harboring EML4-ALK after 72 hrs by MTT assay

KARPAS-299 = assay: Antiproliferative activity against human KARPAS299 cells harboring NPM-ALK after 72 hrs by MTT assay; format: functional, cell-based; settings: KARPAS-299, 72 h
HCC78 = assay: Antiproliferative activity against human HCC78 cells harboring SLC34A2-ROS1 after 72 hrs by MTT assay; format: functional, cell-based; settings: HCC78, 72 h
[1] = biological target: Hepatocyte growth factor receptor (Homo sapiens, UniProt P08581); assay: Inhibition of recombinant human N-terminal GST-tagged c-MET cytoplasmic domain (956 to 1390 residues) expressed in baculovirus expression system using peptide substrate after 1 hr by mobility shift assay
[2] = biological target: Proto-oncogene tyrosine-protein kinase ROS (Homo sapiens, UniProt P08922); assay: Inhibition of recombinant human N-terminal GST-tagged ROS1 cytoplasmic domain (1883 to 2347 residues) expressed in baculovirus expression system using peptide substrate after 1 hr by mobility shift assay
A549 = assay: cells; settings: Homo sapiens, A549, 72 h
Description: Antiproliferative activity against human A549 cells harboring EGFR after 72 hrs by MTT assay

[3] = biological target: Epidermal growth factor receptor (Homo sapiens, UniProt P00533)
Description: Inhibition of recombinant human N-terminal GST-tagged EGFR cytoplasmic domain (669 to 1210 residues) expressed in baculovirus expression system using peptide substrate after 1 hr by mobility shift assay

NCI-H460 = assay: cells; settings: Homo sapiens, NCI-H460, 72 h
Description: Antiproliferative activity against human NCI-H460 cells after 72 hrs by MTT assay

[4] = biological target: ALK tyrosine kinase receptor (Homo sapiens, UniProt Q9UM73)
Description: Inhibition of recombinant human N-terminal GST-tagged ALK cytoplasmic domain (1058 to 1620 residues) expressed in baculovirus expression system using peptide substrate after 1 hr by mobility shift assay

Hepatocyte growth factor receptor, sequence (P08581 whole entry, the tested form may be a part): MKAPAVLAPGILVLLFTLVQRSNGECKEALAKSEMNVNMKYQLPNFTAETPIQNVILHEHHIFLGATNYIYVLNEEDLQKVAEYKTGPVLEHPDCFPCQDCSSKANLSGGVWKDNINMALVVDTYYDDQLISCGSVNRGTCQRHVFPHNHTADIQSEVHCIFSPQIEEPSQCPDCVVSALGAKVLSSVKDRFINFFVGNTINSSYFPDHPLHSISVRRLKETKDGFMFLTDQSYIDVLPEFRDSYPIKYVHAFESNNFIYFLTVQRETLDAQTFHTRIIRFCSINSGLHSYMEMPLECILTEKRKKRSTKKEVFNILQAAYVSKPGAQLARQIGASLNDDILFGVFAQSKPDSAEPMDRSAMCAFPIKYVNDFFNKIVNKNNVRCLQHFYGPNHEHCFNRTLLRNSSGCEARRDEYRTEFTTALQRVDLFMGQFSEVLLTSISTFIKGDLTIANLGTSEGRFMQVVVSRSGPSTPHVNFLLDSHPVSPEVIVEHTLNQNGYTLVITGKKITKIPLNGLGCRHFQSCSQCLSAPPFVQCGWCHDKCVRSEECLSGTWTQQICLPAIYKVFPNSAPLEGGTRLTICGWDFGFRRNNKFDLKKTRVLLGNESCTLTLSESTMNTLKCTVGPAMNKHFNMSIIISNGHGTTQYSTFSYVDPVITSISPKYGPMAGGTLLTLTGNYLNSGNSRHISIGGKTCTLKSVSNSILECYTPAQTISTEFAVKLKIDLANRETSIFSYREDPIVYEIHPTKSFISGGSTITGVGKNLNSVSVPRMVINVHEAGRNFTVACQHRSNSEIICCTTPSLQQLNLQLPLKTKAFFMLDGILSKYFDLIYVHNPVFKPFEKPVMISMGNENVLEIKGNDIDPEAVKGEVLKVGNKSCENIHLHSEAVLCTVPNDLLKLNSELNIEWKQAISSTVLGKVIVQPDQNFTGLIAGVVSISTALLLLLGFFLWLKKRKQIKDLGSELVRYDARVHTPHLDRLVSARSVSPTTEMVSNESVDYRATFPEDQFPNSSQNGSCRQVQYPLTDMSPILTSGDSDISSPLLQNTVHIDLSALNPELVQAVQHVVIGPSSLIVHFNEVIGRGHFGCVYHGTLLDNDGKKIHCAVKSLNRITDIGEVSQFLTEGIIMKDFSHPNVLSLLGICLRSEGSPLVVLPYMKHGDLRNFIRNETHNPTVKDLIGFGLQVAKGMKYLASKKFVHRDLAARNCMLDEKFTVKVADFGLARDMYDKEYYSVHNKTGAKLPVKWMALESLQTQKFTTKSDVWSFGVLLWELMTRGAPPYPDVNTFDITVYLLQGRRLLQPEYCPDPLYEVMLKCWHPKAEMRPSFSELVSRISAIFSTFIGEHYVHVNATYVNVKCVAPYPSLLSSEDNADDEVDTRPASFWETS
Epidermal growth factor receptor, sequence (P00533 whole entry): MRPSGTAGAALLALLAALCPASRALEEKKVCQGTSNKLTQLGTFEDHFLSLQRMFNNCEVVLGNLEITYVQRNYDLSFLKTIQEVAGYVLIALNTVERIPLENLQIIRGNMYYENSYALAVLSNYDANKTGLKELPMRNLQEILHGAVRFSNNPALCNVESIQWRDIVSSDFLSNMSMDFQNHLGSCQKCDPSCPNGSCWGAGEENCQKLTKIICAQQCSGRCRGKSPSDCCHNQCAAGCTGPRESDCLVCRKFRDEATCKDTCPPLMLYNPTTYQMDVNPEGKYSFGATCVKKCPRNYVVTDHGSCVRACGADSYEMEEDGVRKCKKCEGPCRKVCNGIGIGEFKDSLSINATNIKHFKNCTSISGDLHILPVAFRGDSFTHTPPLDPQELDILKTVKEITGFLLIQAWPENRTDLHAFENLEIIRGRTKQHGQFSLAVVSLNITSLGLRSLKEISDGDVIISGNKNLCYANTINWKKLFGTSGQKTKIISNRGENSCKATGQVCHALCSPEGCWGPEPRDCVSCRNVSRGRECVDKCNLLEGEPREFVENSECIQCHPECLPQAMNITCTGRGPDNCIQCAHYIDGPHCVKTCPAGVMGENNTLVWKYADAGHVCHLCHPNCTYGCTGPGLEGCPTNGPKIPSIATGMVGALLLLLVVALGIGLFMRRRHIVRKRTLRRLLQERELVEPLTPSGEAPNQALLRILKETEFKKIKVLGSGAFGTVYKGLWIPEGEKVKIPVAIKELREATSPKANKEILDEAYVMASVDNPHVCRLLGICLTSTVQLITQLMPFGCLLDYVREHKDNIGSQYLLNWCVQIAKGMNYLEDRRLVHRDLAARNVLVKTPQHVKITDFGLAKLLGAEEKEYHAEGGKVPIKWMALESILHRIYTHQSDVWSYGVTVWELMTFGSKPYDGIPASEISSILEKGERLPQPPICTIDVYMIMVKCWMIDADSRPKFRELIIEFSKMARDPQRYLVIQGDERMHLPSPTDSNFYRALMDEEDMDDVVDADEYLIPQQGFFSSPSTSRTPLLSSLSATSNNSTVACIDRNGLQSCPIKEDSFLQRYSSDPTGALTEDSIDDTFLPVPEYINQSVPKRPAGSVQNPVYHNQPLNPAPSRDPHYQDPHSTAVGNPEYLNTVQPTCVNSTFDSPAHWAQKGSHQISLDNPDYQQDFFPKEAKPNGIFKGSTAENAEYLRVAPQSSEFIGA
Proto-oncogene tyrosine-protein kinase ROS, sequence (P08922 whole entry, the tested form may be a part): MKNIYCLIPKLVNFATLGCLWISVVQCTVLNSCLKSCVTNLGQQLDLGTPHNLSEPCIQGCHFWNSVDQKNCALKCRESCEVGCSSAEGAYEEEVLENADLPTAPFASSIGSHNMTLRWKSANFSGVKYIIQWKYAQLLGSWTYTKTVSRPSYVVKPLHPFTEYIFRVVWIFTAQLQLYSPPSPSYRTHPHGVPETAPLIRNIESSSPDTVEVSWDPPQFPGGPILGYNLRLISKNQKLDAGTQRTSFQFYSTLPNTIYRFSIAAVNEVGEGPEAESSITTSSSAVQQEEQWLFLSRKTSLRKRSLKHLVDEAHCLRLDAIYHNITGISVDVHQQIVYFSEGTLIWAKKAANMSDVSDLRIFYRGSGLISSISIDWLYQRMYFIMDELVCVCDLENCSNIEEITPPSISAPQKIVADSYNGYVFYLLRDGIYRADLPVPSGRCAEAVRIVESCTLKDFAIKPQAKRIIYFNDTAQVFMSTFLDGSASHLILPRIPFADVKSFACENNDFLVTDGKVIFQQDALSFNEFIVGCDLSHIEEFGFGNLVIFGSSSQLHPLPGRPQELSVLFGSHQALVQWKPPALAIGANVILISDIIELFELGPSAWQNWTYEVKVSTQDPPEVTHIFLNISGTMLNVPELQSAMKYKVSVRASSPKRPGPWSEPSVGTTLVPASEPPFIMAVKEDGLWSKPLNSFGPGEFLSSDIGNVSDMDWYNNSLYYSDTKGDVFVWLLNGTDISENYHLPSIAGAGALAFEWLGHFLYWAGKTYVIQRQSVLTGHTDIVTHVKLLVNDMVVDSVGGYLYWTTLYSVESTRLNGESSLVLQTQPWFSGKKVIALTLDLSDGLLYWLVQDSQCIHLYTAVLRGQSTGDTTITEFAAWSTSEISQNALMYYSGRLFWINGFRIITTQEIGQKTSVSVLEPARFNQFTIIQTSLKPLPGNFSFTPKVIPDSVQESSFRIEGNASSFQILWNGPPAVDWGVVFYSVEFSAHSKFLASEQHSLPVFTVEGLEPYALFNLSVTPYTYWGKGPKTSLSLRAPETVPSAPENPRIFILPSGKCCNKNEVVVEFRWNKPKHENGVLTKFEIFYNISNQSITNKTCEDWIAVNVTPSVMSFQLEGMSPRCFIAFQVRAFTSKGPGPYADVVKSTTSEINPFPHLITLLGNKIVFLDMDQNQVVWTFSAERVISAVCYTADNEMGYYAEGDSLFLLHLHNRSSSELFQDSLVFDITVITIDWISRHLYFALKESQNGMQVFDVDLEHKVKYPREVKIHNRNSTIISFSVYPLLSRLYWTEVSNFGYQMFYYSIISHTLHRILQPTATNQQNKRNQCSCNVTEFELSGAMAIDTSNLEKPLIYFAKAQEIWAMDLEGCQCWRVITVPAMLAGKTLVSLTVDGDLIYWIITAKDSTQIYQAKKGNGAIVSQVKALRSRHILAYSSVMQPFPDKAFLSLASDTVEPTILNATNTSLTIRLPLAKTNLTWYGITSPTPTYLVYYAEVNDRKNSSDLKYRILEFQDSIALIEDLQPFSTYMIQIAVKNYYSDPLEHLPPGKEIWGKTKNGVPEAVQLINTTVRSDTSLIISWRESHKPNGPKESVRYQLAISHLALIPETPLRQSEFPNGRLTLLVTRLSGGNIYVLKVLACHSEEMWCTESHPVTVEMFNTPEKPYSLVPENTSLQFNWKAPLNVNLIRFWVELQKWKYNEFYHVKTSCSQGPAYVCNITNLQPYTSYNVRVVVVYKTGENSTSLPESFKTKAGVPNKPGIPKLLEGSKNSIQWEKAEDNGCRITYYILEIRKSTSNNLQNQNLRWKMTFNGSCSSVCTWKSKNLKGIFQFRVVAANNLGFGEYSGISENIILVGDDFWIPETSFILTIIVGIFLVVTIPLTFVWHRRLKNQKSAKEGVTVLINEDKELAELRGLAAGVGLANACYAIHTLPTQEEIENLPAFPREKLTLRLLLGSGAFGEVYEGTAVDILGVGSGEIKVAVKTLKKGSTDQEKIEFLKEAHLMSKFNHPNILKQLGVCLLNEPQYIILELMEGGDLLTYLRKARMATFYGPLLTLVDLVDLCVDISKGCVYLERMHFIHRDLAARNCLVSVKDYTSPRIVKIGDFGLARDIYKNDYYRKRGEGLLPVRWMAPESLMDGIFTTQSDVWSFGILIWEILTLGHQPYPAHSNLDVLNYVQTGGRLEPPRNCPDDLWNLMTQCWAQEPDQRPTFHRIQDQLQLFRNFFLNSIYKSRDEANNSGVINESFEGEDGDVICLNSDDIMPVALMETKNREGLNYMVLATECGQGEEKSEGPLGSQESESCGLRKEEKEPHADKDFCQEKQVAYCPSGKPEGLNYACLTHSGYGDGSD

| Compound | pIC50 (NCI-H2228) | pIC50 (KARPAS-299) | pIC50 (HCC78) | pIC50 [1] | pIC50 [2] | pIC50 (A549) | pIC50 [3] | pIC50 (NCI-H460) | pIC50 [4] |
| --- | --- | --- | --- | --- | --- | --- | --- | --- | --- |
| CC(C)Oc1cc(-c2nc(CN3CCN(C)CC3)cs2)ccc1Nc1ncc(Cl)c(Nc2ccccc2S(=O)(=O)C(C)C)n1 | 7.00 | 7.55 | 6.09 | < 6.00 | 7.71 | < 6.00 | < 6.00 | < 6.00 | 8.47 |
| COc1cc(-c2nc(CN3CCCCC3)cs2)ccc1Nc1ncc(Cl)c(Nc2ccccc2S(=O)(=O)C(C)C)n1 | 6.74 | 7.00 | 6.37 |  |  | < 6.00 |  | < 6.00 |  |
| CCN(CC)Cc1cn(-c2ccc(Nc3ncc(Cl)c(Nc4ccccc4S(=O)(=O)C(C)C)n3)c(OC)c2)nn1 | < 6.00 | 6.30 | < 6.00 |  |  | < 6.00 |  | < 6.00 |  |
| COc1cc(-n2cc(CN(C)C)nn2)ccc1Nc1ncc(Cl)c(Nc2ccccc2S(=O)(=O)C(C)C)n1 | 6.32 | < 6.00 | 6.42 |  |  | < 6.00 |  | < 6.00 |  |
| COc1cc(-c2nc(CN3CCC(C)CC3)cs2)ccc1Nc1ncc(Cl)c(Nc2ccccc2S(=O)(=O)C(C)C)n1 | 6.64 | 6.72 | 6.42 | 6.01 | 8.07 | 6.10 | < 6.00 | < 6.00 | 8.52 |
| COc1cc(-n2cc(CNO)nn2)ccc1Nc1ncc(Cl)c(Nc2ccccc2S(=O)(=O)C(C)C)n1 | < 6.00 | 6.09 | < 6.00 |  |  | < 6.00 |  | < 6.00 |  |
| COc1cc(-n2cc(CN3CCOCC3)nn2)ccc1Nc1ncc(Cl)c(Nc2ccccc2S(=O)(=O)C(C)C)n1 | 6.82 | 6.74 | 6.62 |  |  | < 6.00 |  | < 6.00 |  |
| COc1cc(-c2nc(CN3CCOCC3)cs2)ccc1Nc1ncc(Cl)c(Nc2ccccc2S(=O)(=O)C(C)C)n1 | 6.89 | 6.82 | 6.31 |  |  | < 6.00 |  | < 6.00 |  |
| COc1cc(-n2cc(CN3CCN(C(C)=O)CC3)nn2)ccc1Nc1ncc(Cl)c(Nc2ccccc2S(=O)(=O)C(C)C)n1 | 6.51 | 6.55 | 6.46 |  |  | < 6.00 |  | < 6.00 |  |
| COc1cc(-n2cc(CN3CCC[C@H]3CO)nn2)ccc1Nc1ncc(Cl)c(Nc2ccccc2S(=O)(=O)C(C)C)n1 | 6.42 | 6.49 | 6.28 |  |  | 6.04 |  | < 6.00 |  |
| COc1cc(-c2nc(CN3CCCC3)cs2)ccc1Nc1ncc(Cl)c(Nc2ccccc2S(=O)(=O)C(C)C)n1 | 6.47 | 6.85 | 6.11 |  |  | < 6.00 |  | < 6.00 |  |
| COc1cc(-c2nc(CN3CCC[C@H]3CO)cs2)ccc1Nc1ncc(Cl)c(Nc2ccccc2S(=O)(=O)C(C)C)n1 | 6.64 | 6.80 | 6.33 |  |  | < 6.00 |  | < 6.00 |  |
| COc1cc(-n2cc(CN3CCCC3)nn2)ccc1Nc1ncc(Cl)c(Nc2ccccc2S(=O)(=O)C(C)C)n1 | 6.39 | 6.42 | 6.57 |  |  | < 6.00 |  | < 6.00 |  |
| COc1cc(-n2cc(CN3CCCCC3)nn2)ccc1Nc1ncc(Cl)c(Nc2ccccc2S(=O)(=O)C(C)C)n1 | 6.70 | 6.89 | 6.74 |  |  | < 6.00 |  | 6.01 |  |
| COc1cc(-n2cc(CN3CCN(S(C)(=O)=O)CC3)nn2)ccc1Nc1ncc(Cl)c(Nc2ccccc2S(=O)(=O)C(C)C)n1 | 6.54 | 6.85 | 6.28 |  |  | 6.15 |  | < 6.00 |  |
| Cc1cc(Nc2ncc(Cl)c(Nc3ccccc3S(=O)(=O)C(C)C)n2)c(OC(C)C)cc1C1CCNCC1 [CERITINIB] | 7.00 |  |  |  |  | < 6.00 |  | < 6.00 |  |
| COc1cc(-n2cc(CN3CCC(C)CC3)nn2)ccc1Nc1ncc(Cl)c(Nc2ccccc2S(=O)(=O)C(C)C)n1 | 6.72 | 6.60 | 6.49 | 6.15 | 8.34 | < 6.00 | < 6.00 | < 6.00 | 8.41 |
| COc1cc(-n2cc(CN3CCNCC3)nn2)ccc1Nc1ncc(Cl)c(Nc2ccccc2S(=O)(=O)C(C)C)n1 | 7.06 | 7.46 | 7.09 | < 6.00 | 8.10 | < 6.00 | 6.05 | < 6.00 | 8.37 |
| COc1cc(-n2cc(CN3C[C@@H](C)N[C@@H](C)C3)nn2)ccc1Nc1ncc(Cl)c(Nc2ccccc2S(=O)(=O)C(C)C)n1 | 7.10 | 7.43 | 7.02 | 6.14 | 8.52 | < 6.00 | 6.06 | 6.06 | 8.52 |

Continued, values first:

| pIC50 (NCI-H2228) | pIC50 (KARPAS-299) | pIC50 (HCC78) | pIC50 [1] | pIC50 [2] | pIC50 (A549) | pIC50 [3] | pIC50 (NCI-H460) | pIC50 [4] | Compound |
| --- | --- | --- | --- | --- | --- | --- | --- | --- | --- |
| 6.43 | 6.62 | < 6.00 |  |  | < 6.00 |  | < 6.00 |  | CC(C)Oc1cc(-c2nc(CNC3CC3)cs2)ccc1Nc1ncc(Cl)c(Nc2ccccc2S(=O)(=O)C(C)C)n1 |
| 6.46 | 6.72 | < 6.00 |  |  | < 6.00 |  | < 6.00 |  | CC(C)Oc1cc(-c2nc(CN3CCCC3)cs2)ccc1Nc1ncc(Cl)c(Nc2ccccc2S(=O)(=O)C(C)C)n1 |
| 6.52 | 6.70 | < 6.00 |  |  | 6.07 |  | < 6.00 |  | CC(C)Oc1cc(-c2nc(CN3CCC[C@H]3CO)cs2)ccc1Nc1ncc(Cl)c(Nc2ccccc2S(=O)(=O)C(C)C)n1 |
| 6.46 | 6.72 | < 6.00 |  |  | < 6.00 |  | < 6.00 |  | CC(C)Oc1cc(-c2nc(CNCCO)cs2)ccc1Nc1ncc(Cl)c(Nc2ccccc2S(=O)(=O)C(C)C)n1 |
| 6.46 | 6.85 | < 6.00 |  |  | < 6.00 |  | 6.16 |  | CC(C)Oc1cc(-c2nc(CN3CCOCC3)cs2)ccc1Nc1ncc(Cl)c(Nc2ccccc2S(=O)(=O)C(C)C)n1 |
| 7.05 | 7.66 | 6.24 | < 6.00 | 7.87 | < 6.00 | < 6.00 | < 6.00 | 8.40 | CC(C)Oc1cc(-c2nc(CN3CCN(CCO)CC3)cs2)ccc1Nc1ncc(Cl)c(Nc2ccccc2S(=O)(=O)C(C)C)n1 |
| 6.55 | 6.62 | < 6.00 |  |  | < 6.00 |  | < 6.00 |  | CC1CCN(Cc2csc(-c3ccc(Nc4ncc(Cl)c(Nc5ccccc5S(=O)(=O)C(C)C)n4)c(OC(C)C)c3)n2)CC1 |
| 6.52 | 6.64 | 6.48 |  |  | < 6.00 |  | < 6.00 |  | COc1cc(-c2nc(CNCCO)cs2)ccc1Nc1ncc(Cl)c(Nc2ccccc2S(=O)(=O)C(C)C)n1 |
| 6.64 | 6.92 | < 6.00 |  |  | < 6.00 |  | < 6.00 |  | CC(C)Oc1cc(-c2nc(CN3CCCCC3)cs2)ccc1Nc1ncc(Cl)c(Nc2ccccc2S(=O)(=O)C(C)C)n1 |
| 6.30 | 6.49 | 6.04 |  |  | < 6.00 |  | 6.12 |  | CCN(CC)Cc1csc(-c2ccc(Nc3ncc(Cl)c(Nc4ccccc4S(=O)(=O)C(C)C)n3)c(OC(C)C)c2)n1 |
